# From patent publication US12251366B1, “Sulforaphane-cysteine for wound healing in diabetic subjects” (KUWAIT UNIVERSITY, priority 2024, dated 2025)
# Entries after “also recorded” stand apart in the source; their conditions may differ.
# How the values were obtained:
# TNF-α = test: Cytokine ELISA, LPS-stimulated peritoneal macrophages (TNF-α); type: cell-based, mouse
# Description: (§1) This was exemplified in the current study by the ability of SFN-CYS to inhibit lipopolysaccharide (LPS)-induced peritoneal macrophages and bone marrow-derived macrophages to produce tumor necrosis factor-α (TNF-α) and interlukin-6 (IL-6). TNF-α and IL-6 are two of the major inflammatory mediators that contribute to the pathogenesis of low-grade inflammation; a phenomenon which is commonly associated with the diabetic state. […] Pre-treatment with SFN-Cys inhibited the expression of LPS-induced TNF-α and IL-6 protein at a therapeutic dose of 1.5 μM (FIGS. 1A and 1B).
# (§2) Thioglycollate-elicited mouse peritoneal macrophages were prepared from C57BL (8-10 weeks old) and cultured in RPMI 1640 with 10% (v/v) FCS Bone marrow-derived macrophages were generated in RPMI medium containing M-CSF (10 ng/mL) according to previously published procedure. For cytokine ELISA assay, cells were seeded at 5×10^5 in 12-well plates, whereas for mRNA expression, the cells were seeded at […]. LPS and used at a dose of 100 ng/mL. Similarly. SFN-Cys was used at a concentration of 1.5 umol/L.
# (§3) For cytokine ELISA, supernatants from cultured macrophages were collected in response to treatment with SFN and SFN-Cys for 6 h. The total TNF-α and TL-6 were measured by enzyme-linked immunosorbent assay (ELISA) using kits (R&D system, USA) according to the manufacturer's protocols.
# fibroblasts (CF, DF) = test: Proliferation of fibroblasts from control and diabetic wounds; type: cell-based, rat; settings: 1.5 μM
# Method: Successful wound healing necessitates a series of tightly coordinated and overlapping processes including inflammation, new tissue formation and remodeling. Fibroblasts, in response to growth factors-released mostly by macrophages, migrate to the site of injury, where they proliferate and lay down the extracellular matrix (ECM). Consequently, this facilitates cell migration and tissue reconstruction. The effect of a therapeutic concentration of SFN-Cys (1.5 μM) was investigated on the proliferation of fibroblasts isolated from the granulation tissue of control and diabetic wounds. Similarly, the effect of SFN-Cys on cell migration in the in vitro wound closure assay was also considered. […] Accordingly, in vivo wound closure properties of SFN-Cys were examined using an excisional wound healing rat model. SFN-Cys containing Pluronic acid was topically applied to the wound at a dose of 1.5 μmol concentration and the wound closure area was digitally photographed and quantified. Digital photographs were obtained on day-0 through day-7 of post wounding. […] In this context, the wound healing time-course was faster in SFN-Cys containing Pluronic acid than the Pluronic acid alone (FIG. 3C). […] VEGF is a well-established enhancer of the proliferative phase of healing. […]
# heme oxygenase (HO) = test: mRNA expression of Nrf2 target gene HO in fibroblasts; type: cell-based, rat; settings: diabetic fibroblasts, 1.5 μM
# Method: To better characterize how SFN-Cys impacts cellular antioxidant levels, the ability of SFN-Cys to regulate the transcription factor nuclear factor erythroid 2-related factor 2 (Nrf2) was assessed, which is a master regulator of the antioxidative stress response that induces the expression of antioxidant proteins such as heme oxygenase (HO) and NAD(P)H dehydrogenase (quinine; NQO1) and key enzymes in the glutathione system. In this context, Nrf2 transcriptional activity was first measured using a vector encoding luciferase driven by the NQO1 promoter. […] Administration of SNF-Cyst at the above indicated concentration (1.5 μM, the lowest effective concentration) ameliorated diabetes-induced suppression of the Nrf2 activity and Nrf2-target genes including HO and NQO1 (FIG. 2A-D).
# Total RNA from cells or frozen sponge implants was extracted using the Trizol reagent (Invitrogen), and the RNA integrity was verified by agarose gel electrophoresis. […] The amplified sequences were assessed using the ABI 7500 Prism Sequence Detection system machine. The results were expressed as mRNA levels normalized to 18S or GAPDH in each sample.
# [1] = tested on: Vimentin-TGF-β-Slug signaling pathway; test: Vimentin-TGF-β-Slug signaling in diabetic wound biopsies; type: in vivo, rat; settings: semi-chronic administration
# Description: Although the molecular mechanism by which SFN-Cyst enhanced wound healing potential was not fully explored in this study, it is possible to involve the Vimentin-TGF-β-Slug signaling pathway. Vimentin is an intermediate filament protein that participates in several cellular processes essential for wound healing, including cell proliferation, adhesion, migration and cytoskeletal rearrangement. Moreover, vimentin also amplifies epithelial-mesenchymal-transition via enhancing TGF-β-Slug signaling. […] A similar reduction in TGF-β-Slug signaling level was also evident in this disease state (FIG. 3D).
# Total RNA from cells or frozen sponge implants was extracted using the Trizol reagent (Invitrogen), and the RNA integrity was verified by agarose gel electrophoresis. Approximately 1 μg of RNA was reverse transcribed (Superscript II Reverse Transcriptase Kit, Invitrogen) and amplified using the TaqMan Assay on Demand (Applied Biosystems) in a 25 μL reaction volume containing two unlabeled primers, a 6-carboxyfluorescien-labeled TaqMan MGB probe and the master mix. The amplified sequences were assessed using the ABI 7500 Prism Sequence Detection system machine. The results were expressed as mRNA levels normalized to 18S or GAPDH in each sample.
# IL-6 = test: Cytokine ELISA, LPS-stimulated peritoneal macrophages (IL-6); type: cell-based, mouse; settings: LPS 100 ng/mL 6 hours, pre-treatment 1.5 μM
# Description: as §1, §2, §3
# [2] = Toxicity assessment of chronically administered SFN-Cys (body weight, behavior); type: in vivo, mouse; settings: mice, 21 days
# Method: Testing the pharmacodynamic and toxicodynamic properties of SFN-Cys dictated the mixing SFN-Cys with a powdered diet. The estimated dose delivered by this diet was 1.5-2.5 μmol/mouse (n=4). The SFN-Cys diet was stored at 4° C. and the feeders were refilled daily for the duration of the study (21 days). Corresponding animals received food without the drug.
# To strengthen this conclusion, extensive measurements were conducted on plasma levels of key parameters of kidney and liver toxicities in addition to the lipid and carbohydrate profiles.
# For dietary treatment with SFN-Cys, the SFN-Cys was mixed with a powdered diet (7.5 mg of SFN-Cys per kg of food). The estimated dose delivered by this diet was about 1.0-1.5 mg/kg. The diet was stored at 4° C. and the feeders were refilled daily. Control animals received diet alone. Body weights were recorded twice a week and at the termination of the study, blood was drawn in EDTA-containing tubes, plasma was collected by centrifugation and stored at −80° C. until analysis.
smiles,measurement,setting,value
"C[S+]([O-])CCCCNC(=S)SCC(N)C(=O)O (centres unmarked) [SFN-Cys, Sulforaphane-Cysteine]","anti-inflammatory activity (overall, SFN-Cys compared with SFN)","TNF-α; LPS-stimulated macrophages, mouse model of type 2 diabetes",exhibited anti-inflammatory and antioxidant activities; also recorded: more potent than SFN
same,expression of LPS-induced TNF-α protein,"TNF-α; peritoneal macrophages, LPS 100 ng/mL 6 hours, pre-treatment 1.5 μM, ELISA",inhibited
same,cell proliferation,"fibroblasts (CF, DF)",enhanced cell proliferation in both CF and DF
same,mRNA expression of Nrf2 target gene HO,heme oxygenase (HO),ameliorated
same,deficit in Vimentin-TGF-β-Slug signaling,[1],ameliorated
same,expression of LPS-induced IL-6 protein,IL-6,inhibited
same,body weight,"[2]; SFN-Cys diet, in g (unit assumed)",22.7±3.2
same,signs of adverse effect (body weight and behavior),[2]; chronic SFN-Cys diet,no obvious signs of adverse effect
